Test results: paper PMC7158045 (BMC Plant Biology, 2020)
Where a name gives a salt, the structure may show the parent alone. Read-outs that look alike come from different tables or passages of the source.

Legend:
Assay in all cases: biochemical
ZmDRIK1-R187-P492 = molecular target: T1, ZmDRIK1-R187-P492 (Zea mays, UniProt C0P4K9)
T1 construct: kinase domain, R187-P492
T1 sequence (C0P4K9 1-514): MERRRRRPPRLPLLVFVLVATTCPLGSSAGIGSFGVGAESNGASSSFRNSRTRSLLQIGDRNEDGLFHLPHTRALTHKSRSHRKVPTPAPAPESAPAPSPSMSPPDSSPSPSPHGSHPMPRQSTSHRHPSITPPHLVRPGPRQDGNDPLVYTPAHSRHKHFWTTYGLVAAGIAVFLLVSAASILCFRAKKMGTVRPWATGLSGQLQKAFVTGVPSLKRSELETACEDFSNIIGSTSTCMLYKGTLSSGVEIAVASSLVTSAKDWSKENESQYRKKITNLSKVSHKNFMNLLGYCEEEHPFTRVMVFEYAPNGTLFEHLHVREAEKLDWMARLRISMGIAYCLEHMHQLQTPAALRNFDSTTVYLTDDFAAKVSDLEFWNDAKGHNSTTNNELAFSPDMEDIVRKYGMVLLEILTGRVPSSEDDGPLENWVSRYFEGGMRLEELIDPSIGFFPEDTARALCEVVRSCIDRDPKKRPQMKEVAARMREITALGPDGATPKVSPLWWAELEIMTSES

ZmDRIK1-K217-S514 = molecular target: T2, ZmDRIK1-K217-S514 (Zea mays, UniProt C0P4K9)
T2 construct: kinase domain, K217-S514
T2 sequence (C0P4K9 1-514): T1 sequence (C0P4K9 1-514)

[1] = molecular target: T3, ZmDRIK1 (DROUGHT RESPONSIVE INACTIVE KINASE 1), kinase domain (Zea mays, UniProt C0P4K9)
T3 construct: gene ZEAMMB73_Zm00001d028770; ZmDRIK1-KD R187-S514 (kinase domain)
T3 sequence (C0P4K9 187-514): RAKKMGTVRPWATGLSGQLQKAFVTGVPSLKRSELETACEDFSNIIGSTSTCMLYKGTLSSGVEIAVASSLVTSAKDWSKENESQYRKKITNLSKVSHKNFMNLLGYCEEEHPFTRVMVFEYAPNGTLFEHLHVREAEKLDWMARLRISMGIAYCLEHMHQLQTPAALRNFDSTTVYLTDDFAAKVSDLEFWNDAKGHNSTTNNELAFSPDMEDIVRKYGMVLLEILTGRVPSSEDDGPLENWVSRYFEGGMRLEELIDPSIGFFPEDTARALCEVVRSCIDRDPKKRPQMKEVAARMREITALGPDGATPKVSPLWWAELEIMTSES

ZmDRIK1-K217-P492 = molecular target: T4, ZmDRIK1-K217-P492 (Zea mays, UniProt C0P4K9)
T4 construct: kinase domain, K217-P492
T4 sequence (C0P4K9 1-514): T1 sequence (C0P4K9 1-514)

[2] = read-out: dTm B, DSF, Boltzmann fit, 0.1% DMSO
[3] = read-out: dTm B, sheet ZmDRIK1-K217-S514;, DSF, Boltzmann fit, 0.1% DMSO
[4] = read-out: dTm B, sheet ZmDRIK1-R187-S514;, DSF, Boltzmann fit, 0.1% DMSO
[5] = read-out: dTm B, sheet ZmDRIK1-K217-P492;, DSF, Boltzmann fit, 0.1% DMSO

| Compound | ΔTm at 10 µM (ZmDRIK1-R187-P492; [2]) [°C] | ΔTm at 10 µM (ZmDRIK1-K217-S514; [3]) [°C] | ΔTm at 10 µM [1, 4] [°C] | ΔTm at 10 µM (ZmDRIK1-K217-P492; [5]) [°C] | ΔTm at 10 µM (ZmDRIK1-R187-P492; read-out: dTm B) [°C] | ΔTm at 10 µM (ZmDRIK1-K217-S514; read-out: dTm B) [°C] | ΔTm at 10 µM ([1]; read-out: dTm B) [°C] | ΔTm at 10 µM (ZmDRIK1-K217-P492; read-out: dTm B) [°C] |
| --- | --- | --- | --- | --- | --- | --- | --- | --- |
| COc1ccc(S(=O)(=O)N(CCO)c2ccccc2CN(C)C/C=C/c2ccc(Cl)cc2)cc1 [KN-93 Phosphate] | -1.06 | -0.811 | -0.375 | -4.4 |  |  |  |  |
| C#Cc1cccc(Nc2ncnc3cc4c(cc23)OCCOCCOCCO4)c1 [Icotinib] | -0.388 | -0.34 | -0.618 | -1.1 |  |  |  |  |
| O=C(NCCCNc1nc(Nc2cccc(NC(=O)N3CCCC3)c2)ncc1I)c1cccs1 [BX-795] | -1.23 | -1.39 | -0.711 | -1.46 |  |  |  |  |
| CC1=C(C(=O)Nc2cc3cn[nH]c3cc2F)C(c2ccc(C(F)(F)F)cc2)CC(=O)N1 (stereo not shown) [GSK429286A] | -0.447 | -0.373 | -0.758 | -1.02 |  |  |  |  |
| CNC(=O)c1cc(Oc2ccc(NC(=O)Nc3cc(C(C)(C)C)nn3-c3ccc4ncccc4c3)c(F)c2)ccn1 [DCC-2036 (Rebastinib)] | -0.261 | -0.422 | -1.41 | -1.25 |  |  |  |  |
| CN(C)Cc1cccc(N/C(=C2\C(=O)Nc3cc(C(N)=O)ccc32)c2ccccc2)c1 [BIX 02188] | -0.00337 | -0.0855 | -0.816 | -0.147 |  |  |  |  |
| C=CC(=O)Nc1cccc(Oc2nc(Nc3ccc(N4CCN(C)CC4)cc3)ncc2Cl)c1 [WZ3146] | -0.00788 | -0.0548 | -0.897 | -0.696 |  |  |  |  |
| Cc1cnc(Nc2ccc(OCCN3CCCC3)cc2)nc1Nc1cccc(S(=O)(=O)NC(C)(C)C)c1 [TG101348 (SAR302503)] | -0.567 | -0.238 | -0.804 | -0.974 |  |  |  |  |
| CC(C)(C)Cn1c(N)nc2ccc(-c3[nH]c(C(C)(C)C)nc3-c3ccc(F)cc3)nc21 [LY2228820] | -0.267 | -0.619 | -0.95 | -0.453 |  |  |  |  |
| COc1ccc(C(=O)Nc2sc3c(c2C(N)=O)CCCC3)cc1OC [TCS 359] | -0.318 | -0.549 | 0.606 | -0.245 |  |  |  |  |
| CC(=O)Nc1cccc(-n2c(=O)n(C3CC3)c(=O)c3c(Nc4ccc(I)cc4F)n(C)c(=O)c(C)c32)c1 [Trametinib (GSK1120212)] | -0.327 | -0.496 | -0.482 | -1.15 |  |  |  |  |
| Nc1ncnc2c1c(-c1cccc(OCc3ccccc3)c1)cn2C1CC(CN2CCCC2)C1 (stereo in doubt) [NVP-ADW742] | -0.18 | -0.731 | -1.07 | -0.671 |  |  |  |  |
| O=C(Nc1cccc(Nc2ncc(Br)c(NCCc3cnc[nH]3)n2)c1)N1CCCC1 [BX-912] | -0.165 | -0.277 | -0.512 | -0.986 |  |  |  |  |
| Cn1c(=O)c(F)c(Nc2ccc(I)cc2F)c2c(=O)n(C[C@@H](O)CO)cnc21 [TAK-733] | -0.375 | -0.514 | -0.814 | -1.32 |  |  |  |  |
| CC(C)(C)c1cc(/C=C(\C#N)C(N)=S)cc(C(C)(C)C)c1O [Tyrphostin AG 879] | -0.277 | 0.259 | -0.339 | -0.358 |  |  |  |  |
| COc1cccc2cc(-c3nc([C@H]4CC[C@H](C(=O)O)CC4)n4ncnc(N)c34)[nH]c12 [OSI-027] | -0.418 | -0.417 | -0.416 | -1.03 |  |  |  |  |
| CNC(=O)c1c(F)cccc1Nc1nc(Nc2cc3c(ccn3C(=O)CN(C)C)cc2OC)nc2[nH]ccc12 [GSK1838705A] | -0.292 | -0.398 | -0.961 | -0.578 |  |  |  |  |

| Compound | ΔTm at 10 µM (ZmDRIK1-R187-P492; [2]) [°C] | ΔTm at 10 µM (ZmDRIK1-K217-S514; [3]) [°C] | ΔTm at 10 µM [1, 4] [°C] | ΔTm at 10 µM (ZmDRIK1-K217-P492; [5]) [°C] | ΔTm at 10 µM (ZmDRIK1-R187-P492; read-out: dTm B) [°C] | ΔTm at 10 µM (ZmDRIK1-K217-S514; read-out: dTm B) [°C] | ΔTm at 10 µM ([1]; read-out: dTm B) [°C] | ΔTm at 10 µM (ZmDRIK1-K217-P492; read-out: dTm B) [°C] |
| --- | --- | --- | --- | --- | --- | --- | --- | --- |
| Cc1ccc(-c2nn(C(C)(C)C)c3ncnc(N)c23)cc1 [PP1] | -0.136 | -0.253 | -0.972 | -1.01 |  |  |  |  |
| CS(=O)(=O)c1ccc(-c2cnc(N)c(C(=O)Nc3ccccc3)n2)cc1 [VE-821] | -0.26 | -0.669 | -0.715 | -0.928 |  |  |  |  |
| CN(C)CCOc1ccc(-c2nc(-c3ccncc3)c(-c3ccc4c(c3)CC/C4=N\O)[nH]2)cc1 [SB590885] | -0.167 | -0.286 | -0.734 | -0.936 |  |  |  |  |
| COc1cc2c(N3CCN(C(=O)Nc4ccc(OC(C)C)cc4)CC3)ncnc2cc1OCCCN1CCCCC1 [Tandutinib (MLN518)] | -0.158 | -0.303 | -0.869 | -0.971 |  |  |  |  |
| Cn1cc(C2=C(c3cn(CCCSC(=N)N)c4ccccc34)C(=O)NC2=O)c2ccccc21 [Ro 31-8220 Mesylate] | -0.197 | -0.33 | -0.819 | -1.24 |  |  |  |  |
| CNC(=O)c1nn(C)c2c1C(C)(C)Cc1cnc(Nc3ccc(N4CCN(C)CC4)cc3)nc1-2 [Milciclib (PHA-848125)] | -0.101 | -0.233 | -0.178 | -0.0433 |  |  |  |  |
| Cc1[nH]c(/C=C2\C(=O)Nc3ccccc32)c(C)c1CCC(=O)O [TSU-68 (SU6668)] | -0.199 | -0.226 | -0.64 | -1.14 |  |  |  |  |
| O=c1cc(N2CCOCC2)oc2c(-c3ccccc3)cccc12 [LY294002] | -0.0828 | -0.184 | -0.881 | -0.874 |  |  |  |  |
| CNC(=O)CN1CCC(Oc2cc3c(Nc4cccc(Cl)c4F)ncnc3cc2OC)CC1 [AZD8931 (Sapitinib)] | -0.238 | -0.326 | -1.22 | -1.14 |  |  |  |  |
| COc1ccc(N(C(=O)Oc2c(C)cccc2C)c2ccnc(Nc3ccc(N4CCN(C)CC4)cc3)n2)c(OC)c1 [WH-4-023] |  |  |  |  | -0.703 | -0.646 | -0.841 | -0.826 |
| Cc1[nH]nc2ccc(-c3cncc(OC[C@@H](N)Cc4ccccc4)c3)cc12 [A-674563] | -0.417 | -0.328 | -0.493 | -0.898 |  |  |  |  |
| CCOc1ccn(-c2ccc(F)cc2)c(=O)c1C(=O)Nc1ccc(Oc2ccnc(N)c2Cl)c(F)c1 [BMS-777607] | -0.218 | -0.662 | -1.06 | -0.979 |  |  |  |  |
| CN1CCN(CCOc2cc(OC3CCOCC3)c3c(Nc4c(Cl)ccc5c4OCO5)ncnc3c2)CC1 [Saracatinib (AZD0530)] | -0.196 | -0.253 | -0.646 | -1.11 |  |  |  |  |
| CN1CCN(c2ccc(OC(F)(F)F)c(Nc3ncc4c(n3)-c3c(c(C(N)=O)nn3CCO)CC4)c2)CC1 [NMS-P937 (NMS1286937)] | -0.749 | -0.517 | -1.15 | -1.1 |  |  |  |  |
| CS(=O)(=O)N1CCc2c(-c3cnc(N)nc3)nc(N3CCOCC3)nc21 [CH5132799] | -0.223 | -0.324 | -0.711 | -0.608 |  |  |  |  |
| COc1ccc(-c2cc3c(C)nc(N)nc3n([C@H]3CC[C@H](OCCO)CC3)c2=O)cn1 [PF-04691502] | -0.18 | -0.31 | -0.814 | -0.953 |  |  |  |  |
| O=S(=O)(NCCNC/C=C/c1ccc(Br)cc1)c1cccc2cnccc12 [H 89 2HCl] | -0.178 | -0.188 | -0.703 | -0.68 |  |  |  |  |
